Results from patent US20190224279A1, “PHARMACEUTICAL ASSOCIATION COMPRISING A GROWTH FACTOR RECEPTOR AGONIST CONJUGATED TO A BIOACTIVE CARRIER FOR CONVERTING A NEOPLASTIC CELL INTO A NON-NEOPLASTIC CELL AND USES THEREOF” (HISTIDE AG, priority 2015, published 2019).

Experiments:
[1] = system: Smad1/5/8 signaling pathway; test: Growth factor receptor activation: quantification of western blots of phospho-Smad1/5/8; type: cell-based; details: human osteosarcoma cells MG63; 400 ng/mL GFR-binding compound; Table 4
Protocol: After 24 hours of culture, cells were permeabilized (10% SDS, 25 mM NaCl, 10 nM pepstatin and 10 nM leupeptin in distilled water and loading buffer), boiled for 10 minutes and resolved by reducing PAGE (Invitrogen). Proteins were transferred onto nitrocellulose, blocked, and labeled with HRP-conjugated antibodies (Invitrogen). Integrin αv, α5, α3, α4, β1, β, β5 and […] were blotted by treating the nitrocellulose with monoclonal anti-integrin (extracellular domain) αv, α5, α3, α4, β1, β3, β5 and β6 antibodies (Santa Cruz Biotechnology). Phosphor-Smad1/5/8 was blotted by treating the nitrocellulose with monoclonal anti-p-Smad1/5/8 (Santa Cruz Biotechnology). For all of the experiments the western blot was performed in triplicate, along with an additional blot for actin and coomassie blue staining to ensure constant protein load among samples.

[2] = system: human osteosarcoma cells, MG63; test: Tumor cell recoding via quantification of pRB (immunofluorescence, ImageJ); type: cell-based
Protocol: The cells were first fixed for 20 min with 4% paraformaldehyde/PBS at 4° C. After fixation, the cells were permeabilized in PBS containing 1% Triton X-100 for 15 min. Protein immunofluorescent visualization was performed by first treating the cells with 1% (v/v) specific monoclonal antibodies for 1 hour at 37° C. Then the samples were incubated with Alexa Fluor® 568 or 647 (F(ab′)2 fragment of IgG(H+L)) during 30 min at room temperature. The cell nuclei were counterstained in 20 ng/mL DAPI for 10 min at room temperature.
For this type of quantification the freeware image analysis ImageJ® software was used. The raw image was first converted to an 8-bit file, and then the unsharp mask feature was used (settings 1:0.2) to remove the image background (rolling ball radius 10). After smoothing, the resulting image, which appears similar to the original photomicrograph but with minimal background, was then converted to a binary image by setting a threshold. Threshold values were determined empirically by selecting a setting, which gave the most accurate binary image for a subset of randomly selected photomicrographs. The cell area was determined by manual delineation on raw fluorescent images. Total contact area and mean contact area per cell were calculated by “analyse particules” in ImageJ®. A minimum of 50 cells per condition were analyzed.
Neoplastic cells (in this example osteosarcoma cells) were cultured on pharmaceutical associations comprising PET as a bioactive carrier and one of GFR-binding compounds of SEQ ID NO: 11 to 14, 24 to 26 and 51 to 63. A rapid (24 hours) decrease of the tumor markers was observed (FIG. 7). The adhesion checkpoint then activates the tumor suppressor proteins p53 and pRB. […]

Sequence | p-Smad1/5/8 (%) [1] [%] | pRB (%) ([2]; Table 4) | pRB (%) ([2]; Table 5)
APTKLEPLPMVYYEERRNVIEQLSNNMVVR (Non-cyclic GFR-binding peptide) [SEQ ID NO: 86] | 34 | 11 | 11
APTKLEPLTIVYYDDSSNVIEQLSNNMVVR (Non-cyclic GFR-binding peptide) [SEQ ID NO: 88] | 32 | 21 | 21
APTQLSAISTLYLEIVRKKPLKNYQEMEDH (Non-cyclic GFR-binding peptide) [SEQ ID NO: 78] | 58 | 20 | 20
APTQLSAISTLYLEIVRKKPLKNYQFLQHNK (Non-cyclic GFR-binding peptide) [SEQ ID NO: 77] | 52 | 14 | 14
ASASPSSVPQDLEPLTILYYVGRTPKVEQLSNMV (Non-cyclic GFR-binding peptide) [SEQ ID NO: 65] | 38 | 18 | 18
ASASPSSVPQDLEPLTILYYVGRTPKVEQLSNMVEDH (Non-cyclic GFR-binding peptide) [SEQ ID NO: 80] | 34 | 17 | 17
NDEGLECVPTEERPVQVRKIRIKPHQGQKKATVFLQHNK [SEQ ID NO: 64] (Non-cyclic GFR-binding peptide) | 36 | 14 | 14
NDEGLECVPTEERPVQVRKIRIKPHQGQKKATVFLQHNK [SEQ ID NO: 79] (Non-cyclic GFR-binding peptide) | 27 | 21 | 21
RNVQCRPTQLEPLPIVYYEIVRKKPEQLSNTLE (Non-cyclic GFR-binding peptide) [SEQ ID NO: 95] | 29 | 8 | 8
RNVQCRPTQLEPLPIVYYEIVRKKPEQLSNTLEDHLA [SEQ ID NO: 66] (Non-cyclic GFR-binding peptide) | 38 | 21 | 21
RNVQCRPTQLEPLPIVYYEIVRKKPEQLSNTLEDHLA [SEQ ID NO: 81] (Non-cyclic GFR-binding peptide) | 41 | 19 | 19
SRVHHNAISTLYFDESSNVILKKYRGMSVVE (Non-cyclic GFR-binding peptide) [SEQ ID NO: 91] | 56 | 9 | 9
TPTKMSPINMLYFNEKNNIIYGKIPGM (Non-cyclic GFR-binding peptide) [SEQ ID NO: 94] | 41 | 20 | 20
TPTKMSPINMLYFNEKNNIIYGKIPGMVVD (Non-cyclic GFR-binding peptide) [SEQ ID NO: 76] | 55 | 15 | 15
TQVQLEPLTLLYYDENEKVIEQLSNDMVVE (Non-cyclic GFR-binding peptide) [SEQ ID NO: 71] | 47 | 19 | 19
VPARLSPISILYIDAANNVVYKQYEDM (Non-cyclic GFR-binding peptide) [SEQ ID NO: 74] | 51 | 10 | 10
VPARLSPISILYIDAANNVVYKQYEDMVKS (Non-cyclic GFR-binding peptide) [SEQ ID NO: 93] | 44 | 8 | 8
VPARLSPISILYIDEMGVPTYKQYEEGMSVAE (Non-cyclic GFR-binding peptide) [SEQ ID NO: 83] | 33 | 9 | 9

Sequence | p-Smad1/5/8 (%) [1] [%] | pRB (%) ([2]; Table 4) | pRB (%) ([2]; Table 5)
VPEKMSSLSILFFDENKNAALKVYPNMTVE (Non-cyclic GFR-binding peptide) [SEQ ID NO: 92] | 52 | 8 | 8
VPEKMSSLSILFFDENKNVVLKVYPNMAVS (Non-cyclic GFR-binding peptide) [SEQ ID NO: 73] | 44 | 17 | 17
VPQALNAISTLYFDDSSNVILKKYRNMAVS (Non-cyclic GFR-binding peptide) [SEQ ID NO: 72] | 48 | 11 | 11
VPQALSPINMLYFNEKNQIIYGKIPFLQHNK (Non-cyclic GFR-binding peptide) [SEQ ID NO: 75] | 54 | 8 | 8
VPQALSPISILFIRLKPHQGHLGEMSNMVVR (Non-cyclic GFR-binding peptide) [SEQ ID NO: 85] | 26 | 24 | 24
VPQALSPISILFIVGRKPKVYKQYEMIVERS (Non-cyclic GFR-binding peptide) [SEQ ID NO: 89] | 41 | 18 | 18
VPQALSPISILYIDDMGVPTYKQYEEGMSVAE (Non-cyclic GFR-binding peptide) [SEQ ID NO: 68] | 39 | 7 | 7
VPTEESNITTQIMRIKPHQGQHIGEMSFLQH [SEQ ID NO: 69] (Non-cyclic GFR-binding peptide) | 32 | 23 | 23
VPTEESNITTQIMRIKPHQGQHIGEMSFLQH [SEQ ID NO: 84] (Non-cyclic GFR-binding peptide) | 22 | 10 | 10
VPTELSPISILFIRIKPHQGHLGEMSAAVVE (Non-cyclic GFR-binding peptide) [SEQ ID NO: 70] | 30 | 24 | 24
VPTELSPISILFIVGGKPKVYKQYENMVVE (Non-cyclic GFR-binding peptide) [SEQ ID NO: 90] | 36 | 17 | 17
VPTHHSAISMLYLELGGDKPLENYQFLQ (Non-cyclic GFR-binding peptide) [SEQ ID NO: 97] | 46 | 9 | 9
VPTHHSAISTLYLELAGEKPLKNYQFLQHNK (Non-cyclic GFR-binding peptide) [SEQ ID NO: 96] | 47 | 7 | 7
VPTKLSAISTLYLDLAREEPLKNYQEMVVE (Non-cyclic GFR-binding peptide) [SEQ ID NO: 87] | 38 | 16 | 16
VPTKLSPISILYIDDMGVPTYKQYEEGMSVAE (Non-cyclic GFR-binding peptide) [SEQ ID NO: 67] | 40 | 9 | 9
VPTKLSPISILYIDKMGVPTYKQYEEGMSVAE (Non-cyclic GFR-binding peptide) [SEQ ID NO: 82] | 35 | 16 | 16
VSQDLSAISTLYLKIVRKEPLKNYQEMVEE (Non-cyclic GFR-binding peptide) [SEQ ID NO: 98] | 39 | 9 | 9
